Experimental data: patent US7045343B2, “Sterilization indicator test packs” (3M Innovative Properties Company, priority 1998, dated 2006)

Experiments:
[1] = tested on: enzyme associated with Bacillus stearothermophilus spores; assay: Rapid enzyme fluorescence readout of dual rapid readout indicators after prevacuum steam sterilization; format: biochemical; settings: 4-pulse prevacuum steam 121° C.
Method in brief: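 Bacillus stearothermophilus ATCC 7953 spores were coated with a sterilant-resistant chemical solution and pipetted onto paper strips at about 1×10^6 spores per strip. Each strip sat in a dual rapid readout indicator beside a crushable inner container of nutrient medium holding 4-methylumbelliferyl-alpha-D-glucoside at pH 7.6. Indicators went through a 4-pulse prevacuum steam cycle at 121° C, were activated, incubated at 60° C, and read for fluorescence on a 3M ATTEST Model 190 Rapid Autoreader.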

[2] = tested on: enzyme associated with Bacillus stearothermophilus spores; assay: Rapid enzyme fluorescence readout of indicators after hydrogen peroxide plasma sterilization; format: biochemical; settings: for FLUORESCENCE - PERCENT POSITIVE 1 HR / FLUORESCENCE - PERCENT POSITIVE 2 HR / FLUORESCENCE - PERCENT POSITIVE 3 HR / FLUORESCENCE - PERCENT POSITIVE 4 HR / FLUORESCENCE - PERCENT POSITIVE 5 HR: 1–22 min diffusion
Procedure: (§1) Sterilization indicators for Examples 6–9 were prepared as described above with the exception that closure member 22 of the sterilization indicator was constructed of TYVEK™ high-density polyethylene fiber material, commercially available from E.I. du Pont de Nemours and Co., Wilmington, Del.
(§2) Sterilization indicators were made as described above with spores that had been coated with each of the chemicals and concentrations listed in Table 6. The indicators were placed in instrument trays and exposed to a hydrogen peroxide plasma sterilization procedure at 45–55° C. in a STERRAD™ 100SI GMP Sterilizer, obtained from Advanced Sterilization Products Co., Irvine, Calif. During the sterilization procedure a vacuum was drawn in the sterilization chamber for 5–6 minutes until the pressure was reduced to 300 mTorr. A 1.8 ml aliquot of an aqueous solution of 58–60% hydrogen peroxide was then injected into the sterilization chamber over a period of about 6 minutes, yielding an empty chamber concentration of […] hydrogen peroxide, and hydrogen peroxide vapor was allowed to diffuse throughout the chamber for 1–22 minutes at 6–10 Torr. A vacuum was then drawn, reducing the pressure to 500 mTorr and removing all detectable hydrogen peroxide vapor from the chamber.
(§3) After exposure to the sterilization procedure, the indicators were removed from the sterilizer and the inner containers containing the enzyme substrate and nutrient medium were crushed. The indicators were then incubated at 60° C. and examined for fluorescence every hour for 5 hours using a 3M™ ATTEST™ Model 190 Rapid Autoreader, commercially available from 3M Company, St. Paul, Minn. Additionally, spore growth, as indicated by a color change from purple to yellow, was determined visually after 168 hours of incubation.
(§4) The number of growth positive indicators detected after 168 hours of incubation is recorded in Table 6.
as §2, with “7.” for “6.”
as §2, with “8.” for “6.”, “chamber. […]” for “chamber.”

[3] = tested on: Bacillus stearothermophilus spores; assay: Spore outgrowth (color change) of indicators after hydrogen peroxide plasma sterilization; format: cell-based; settings: 1–22 min diffusion
Procedure: as §1, §2, §3, §4
as §2, with “7.” for “6.”
as §2, with “8.” for “6.”, “chamber. […]” for “chamber.”

[4] = tested on: Bacillus stearothermophilus spores; assay: Spore outgrowth (color change) of indicators after prevacuum steam sterilization; format: cell-based; settings: 4-pulse prevacuum steam 121° C.
Method in brief: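 Bacillus stearothermophilus ATCC 7953 spores were cleaned, mixed into a heated sterilant-resistant coating chemical solution and pipetted onto paper strips at about 1×10^6 spores per strip. The strips were dried and placed in indicators, then exposed to a 4-pulse prevacuum steam cycle at 121° C. After exposure the media ampoule was crushed, and growth was judged visually as a purple-to-yellow color change after 168 hours at 60° C.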

[5] = Example 5, 50 mg/ml coating, 7–13 min
[6] = Example 5, 100 mg/ml coating, 7–13 min
[7] = Example 4, 50 mg/ml coating, 7–18 min
[8] = Example 4, 100 mg/ml coating, 7–18 min

With “polyoxyethylene (20) sorbitan monostearate [POE(20) Sorbitan Monostearate]” the “FLUORESCENCE - PERCENT POSITIVE 1 HR” value [1, 5] was 0%, the “FLUORESCENCE - PERCENT POSITIVE 2 HR” value [1, 5] was 0% and the “FLUORESCENCE - PERCENT POSITIVE 3 HR” value [1, 5] was 0%. For the same substance, the “FLUORESCENCE - PERCENT POSITIVE 4 HR” value [1, 5] was 0%, the “FLUORESCENCE - PERCENT POSITIVE 1 HR” value [1, 6] was 0% and the “FLUORESCENCE - PERCENT POSITIVE 2 HR” value [1, 6] was 0%. For the same substance, the “FLUORESCENCE - PERCENT POSITIVE 3 HR” value [1, 6] was 0%, the “FLUORESCENCE - PERCENT POSITIVE 4 HR” value [1, 6] was 0% and the “accuracy of sterilization indicators compared to indicators made with untreated spores” value ([2]; 2–3 hours after exposure) was “improved”. For the same substance, the “FLUORESCENCE - PERCENT POSITIVE 1 HR” value ([2]; Example 7, 50 mg/ml coating) was 100%, the “FLUORESCENCE - PERCENT POSITIVE 2 HR” value ([2]; Example 7, 50 mg/ml coating) was 100% and the “FLUORESCENCE - PERCENT POSITIVE 3 HR” value ([2]; Example 7, 50 mg/ml coating) was 100%. The “FLUORESCENCE - PERCENT POSITIVE 4 HR” value ([2]; Example 7, 50 mg/ml coating) was 100%, the “FLUORESCENCE - PERCENT POSITIVE 5 HR” value ([2]; Example 7, 50 mg/ml coating) was 100% and the “FLUORESCENCE - PERCENT POSITIVE 1 HR” value ([2]; Example 7, 100 mg/ml coating) was 50%. For the same substance, the “FLUORESCENCE - PERCENT POSITIVE 2 HR” value ([2]; Example 7, 100 mg/ml coating) was 50%, the “FLUORESCENCE - PERCENT POSITIVE 3 HR” value ([2]; Example 7, 100 mg/ml coating) was 62.5% and the “FLUORESCENCE - PERCENT POSITIVE 4 HR” value ([2]; Example 7, 100 mg/ml coating) was 75%. The “FLUORESCENCE - PERCENT POSITIVE 5 HR” value ([2]; Example 7, 100 mg/ml coating) was 75%, the “NO. GROWTH POSITIVE 168 HR” value ([3]; Example 7, 50 mg/ml coating) was 6 and the “NO. GROWTH POSITIVE 168 HR” value ([3]; Example 7, 100 mg/ml coating) was 8. For the same substance, the “NO. GROWTH POSITIVE 168 HR” value [4, 5] was 5 and the “NO. GROWTH POSITIVE 168 HR” value [4, 6] was 2.

In the case of Decaglyceral Hexaoleate, the “FLUORESCENCE - PERCENT POSITIVE 1 HR” value [1, 7] was 0%, the “FLUORESCENCE - PERCENT POSITIVE 2 HR” value [1, 7] was 0% and the “FLUORESCENCE - PERCENT POSITIVE 3 HR” value [1, 7] was 22.2%. For the same substance, the “FLUORESCENCE - PERCENT POSITIVE 4 HR” value [1, 7] was 55.6%, the “FLUORESCENCE - PERCENT POSITIVE 1 HR” value [1, 8] was 5.6% and the “FLUORESCENCE - PERCENT POSITIVE 2 HR” value [1, 8] was 16.7%. The “FLUORESCENCE - PERCENT POSITIVE 3 HR” value [1, 8] was 27.8%, the “FLUORESCENCE - PERCENT POSITIVE 4 HR” value [1, 8] was 33.3% and the “accuracy of sterilization indicators compared to indicators made with untreated spores” value ([2]; 1–3 hours after exposure) was “improved”. For the same substance, the “FLUORESCENCE - PERCENT POSITIVE 1 HR” value ([2]; Example 6, 10 mg/ml coating) was 100%, the “FLUORESCENCE - PERCENT POSITIVE 2 HR” value ([2]; Example 6, 10 mg/ml coating) was 100% and the “FLUORESCENCE - PERCENT POSITIVE 3 HR” value ([2]; Example 6, 10 mg/ml coating) was 100%. For the same substance, the “FLUORESCENCE - PERCENT POSITIVE 4 HR” value ([2]; Example 6, 10 mg/ml coating) was 100%, the “FLUORESCENCE - PERCENT POSITIVE 5 HR” value ([2]; Example 6, 10 mg/ml coating) was 100% and the “NO. GROWTH POSITIVE 168 HR” value ([3]; Example 6, 10 mg/ml coating) was 12. The “NO. GROWTH POSITIVE 168 HR” value [4, 7] was 9 and the “NO. GROWTH POSITIVE 168 HR” value [4, 8] was 18.

In the case of Decaglyceryl Trioleate, the “FLUORESCENCE - PERCENT POSITIVE 1 HR” value [1, 7] was 0.0%, the “FLUORESCENCE - PERCENT POSITIVE 2 HR” value [1, 7] was 21.1% and the “FLUORESCENCE - PERCENT POSITIVE 3 HR” value [1, 7] was 47.4%. The “FLUORESCENCE - PERCENT POSITIVE 4 HR” value [1, 7] was 68.4%, the “FLUORESCENCE - PERCENT POSITIVE 1 HR” value [1, 8] was 23.1% and the “FLUORESCENCE - PERCENT POSITIVE 2 HR” value [1, 8] was 50.0%. For the same substance, the “FLUORESCENCE - PERCENT POSITIVE 3 HR” value [1, 8] was 73.1%, the “FLUORESCENCE - PERCENT POSITIVE 4 HR” value [1, 8] was 92.3% and the “FLUORESCENCE - PERCENT POSITIVE 1 HR” value ([2]; Example 6, 50 mg/ml coating) was 85.0%. For the same substance, the “FLUORESCENCE - PERCENT POSITIVE 2 HR” value ([2]; Example 6, 50 mg/ml coating) was 97.5%, the “FLUORESCENCE - PERCENT POSITIVE 3 HR” value ([2]; Example 6, 50 mg/ml coating) was 100% and the “FLUORESCENCE - PERCENT POSITIVE 4 HR” value ([2]; Example 6, 50 mg/ml coating) was 100%. The “FLUORESCENCE - PERCENT POSITIVE 5 HR” value ([2]; Example 6, 50 mg/ml coating) was 100%, the “NO. GROWTH POSITIVE 168 HR” value ([3]; Example 6, 50 mg/ml coating) was 40 and the “NO. GROWTH POSITIVE 168 HR” value [4, 7] was 19. The “NO. GROWTH POSITIVE 168 HR” value [4, 8] was 26.

With Decaglyceryl Dipalmitate the “accuracy of sterilization indicators compared to indicators made with untreated spores” value [1] was “improved”, the “FLUORESCENCE - PERCENT POSITIVE 1 HR” value [1, 7] was 7.1% and the “FLUORESCENCE - PERCENT POSITIVE 2 HR” value [1, 7] was 67.9%. For the same substance, the “FLUORESCENCE - PERCENT POSITIVE 3 HR” value [1, 7] was 89.3%, the “FLUORESCENCE - PERCENT POSITIVE 4 HR” value [1, 7] was 92.9% and the “FLUORESCENCE - PERCENT POSITIVE 1 HR” value [1, 8] was 34.6%. For the same substance, the “FLUORESCENCE - PERCENT POSITIVE 2 HR” value [1, 8] was 61.5%, the “FLUORESCENCE - PERCENT POSITIVE 3 HR” value [1, 8] was 69.2% and the “FLUORESCENCE - PERCENT POSITIVE 4 HR” value [1, 8] was 69.2%. For the same substance, the “FLUORESCENCE - PERCENT POSITIVE 1 HR” value ([2]; Example 8, 50 mg/ml coating) was 66.7%, the “FLUORESCENCE - PERCENT POSITIVE 2 HR” value ([2]; Example 8, 50 mg/ml coating) was 74.1% and the “FLUORESCENCE - PERCENT POSITIVE 3 HR” value ([2]; Example 8, 50 mg/ml coating) was 77.8%. The “FLUORESCENCE - PERCENT POSITIVE 4 HR” value ([2]; Example 8, 50 mg/ml coating) was 77.8%, the “FLUORESCENCE - PERCENT POSITIVE 5 HR” value ([2]; Example 8, 50 mg/ml coating) was 77.8% and the “NO. GROWTH POSITIVE 168 HR” value ([3]; Example 8, 50 mg/ml coating) was 27. The “NO. GROWTH POSITIVE 168 HR” value [4, 7] was 28 and the “NO. GROWTH POSITIVE 168 HR” value [4, 8] was 26.
